These results are taken from patent US20200291018A1, “TAM KINASE INHIBITORS” (SYROS PHARMACEUTICALS, INC., priority 2017, published 2020).

Molecules are shown by their SMILES. Where only a bound is given, the exact number is not on record here.

For orientation: IC50 means the concentration that gives 50% inhibition.

One assay addresses T1, FLT3 (Homo sapiens, UniProt P36888).
T1 sequence (P36888 27-993): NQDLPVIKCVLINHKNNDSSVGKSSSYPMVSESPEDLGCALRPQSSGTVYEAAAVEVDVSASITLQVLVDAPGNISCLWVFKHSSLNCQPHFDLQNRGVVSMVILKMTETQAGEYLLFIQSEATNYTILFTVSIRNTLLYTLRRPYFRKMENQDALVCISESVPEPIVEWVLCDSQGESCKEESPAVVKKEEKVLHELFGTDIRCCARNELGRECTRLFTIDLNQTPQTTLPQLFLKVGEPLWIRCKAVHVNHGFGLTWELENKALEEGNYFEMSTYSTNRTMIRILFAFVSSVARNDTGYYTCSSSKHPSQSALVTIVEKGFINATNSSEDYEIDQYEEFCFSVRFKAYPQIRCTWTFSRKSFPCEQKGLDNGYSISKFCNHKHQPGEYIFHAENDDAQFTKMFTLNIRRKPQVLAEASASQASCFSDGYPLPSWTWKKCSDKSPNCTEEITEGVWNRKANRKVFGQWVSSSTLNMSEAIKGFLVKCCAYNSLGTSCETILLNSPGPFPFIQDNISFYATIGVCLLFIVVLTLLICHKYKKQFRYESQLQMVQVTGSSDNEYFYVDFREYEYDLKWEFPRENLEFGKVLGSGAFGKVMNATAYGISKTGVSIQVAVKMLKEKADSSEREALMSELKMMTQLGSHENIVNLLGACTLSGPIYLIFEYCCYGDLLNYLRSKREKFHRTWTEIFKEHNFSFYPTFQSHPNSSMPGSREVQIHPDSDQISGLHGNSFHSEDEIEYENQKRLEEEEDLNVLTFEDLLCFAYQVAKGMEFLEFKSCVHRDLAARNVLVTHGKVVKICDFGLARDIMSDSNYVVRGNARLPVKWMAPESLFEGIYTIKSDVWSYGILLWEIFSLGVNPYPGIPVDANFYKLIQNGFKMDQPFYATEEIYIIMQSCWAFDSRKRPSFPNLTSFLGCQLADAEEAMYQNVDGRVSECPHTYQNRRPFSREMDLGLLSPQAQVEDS
Nature of the assay: TR-FRET kinase activity assay, FLT3. To be noted: ATP at Km, 60 minutes. The class given is biochemical. The method in brief: (§1)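 Enzyme, fluorescent-labeled peptide substrate and compound were mixed, then ATP was added at each enzyme's Km. Buffer was 50 mM HEPES pH 7.5, 10 mM MgCl2, 1 mM EGTA, 0.01% Brij 35, 1 mM DTT at RT. After 60 min, EDTA quench and 30 min with Eu-anti-phosphotyrosine-site antibody; TR-FRET read gave IC50.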
In general terms: TR-FRET usually uses a lanthanide donor and a delayed reading to cut background.

The target of the next assay is T2, MERTK (Homo sapiens, UniProt Q12866).
T2 sequence (Q12866 21-999): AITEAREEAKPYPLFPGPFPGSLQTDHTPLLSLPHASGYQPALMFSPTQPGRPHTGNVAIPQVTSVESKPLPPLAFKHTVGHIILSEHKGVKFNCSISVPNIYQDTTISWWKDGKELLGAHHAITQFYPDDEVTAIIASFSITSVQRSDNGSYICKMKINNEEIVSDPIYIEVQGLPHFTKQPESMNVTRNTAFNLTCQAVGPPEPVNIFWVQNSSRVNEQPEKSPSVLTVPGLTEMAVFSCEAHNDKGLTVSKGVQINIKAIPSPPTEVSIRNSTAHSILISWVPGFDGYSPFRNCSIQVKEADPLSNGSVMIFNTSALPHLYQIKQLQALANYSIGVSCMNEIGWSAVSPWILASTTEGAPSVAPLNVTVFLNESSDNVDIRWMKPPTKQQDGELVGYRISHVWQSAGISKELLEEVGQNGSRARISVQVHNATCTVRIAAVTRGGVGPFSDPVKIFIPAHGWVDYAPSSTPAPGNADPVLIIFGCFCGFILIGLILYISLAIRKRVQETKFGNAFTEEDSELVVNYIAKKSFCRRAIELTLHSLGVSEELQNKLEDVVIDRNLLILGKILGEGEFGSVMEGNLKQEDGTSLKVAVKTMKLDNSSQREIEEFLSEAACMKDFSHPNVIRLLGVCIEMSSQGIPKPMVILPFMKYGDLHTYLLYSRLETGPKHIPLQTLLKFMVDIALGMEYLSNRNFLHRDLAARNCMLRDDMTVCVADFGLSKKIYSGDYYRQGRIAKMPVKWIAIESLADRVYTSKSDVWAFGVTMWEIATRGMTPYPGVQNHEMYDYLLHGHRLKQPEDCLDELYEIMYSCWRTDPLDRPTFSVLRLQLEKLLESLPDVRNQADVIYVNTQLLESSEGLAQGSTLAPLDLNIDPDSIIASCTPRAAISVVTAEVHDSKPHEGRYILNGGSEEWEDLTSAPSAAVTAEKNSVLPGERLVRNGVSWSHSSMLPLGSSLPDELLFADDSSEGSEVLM
Nature of the assay: TR-FRET kinase activity assay, MERTK. In kind it is biochemical. To be noted: for IC50: TR-FRET activity assay, ATP at Km, 60 minutes, read-out: Mer IC50; for Mer/Flt3 ratio (FLT3 IC50/Mer IC50): ratio calculated as FLT3 IC50/Mer IC50. A digest of the protocol:
as §1

The compound `CCCC(C)Nc1ncc2c(O[C@@H]3C[C@H]4CC[C@@H](C3)O4)ncc([C@H]3CC[C@H](O)CC3)c2n1` (stereo partly drawn) [Compound 174] came in with an IC50 against FLT3 of 1 to 10 µM. Further, at MERTK, the IC50 was not above 0.1 µM; the “Mer/Flt3 ratio (FLT3 IC50/Mer IC50)” value was “++ (a ratio of between 10 and 100)”.
On FLT3, `CCCC(C)Nc1ncc2c(O[C@H]3C[C@H]4CC[C@@H](C3)O4)ncc([C@H]3CC[C@H](O)CC3)c2n1` (stereo partly drawn) [Compound 175] had an IC50 of 0.1 to 1 µM. At MERTK, the IC50 is not above 0.1 µM; the “Mer/Flt3 ratio (FLT3 IC50/Mer IC50)” value is “++ (a ratio of between 10 and 100)”.
`CCCC(C)Nc1ncc2c(O[C@H]3C[C@@H](O)C3)ncc([C@H]3CC[C@H](O)CC3)c2n1` (stereo partly drawn) [Compound 176]: the results for the IC50 on FLT3 and at MERTK were 0.1 to 1 µM and not above 0.1 µM, respectively. Further, at MERTK, the “Mer/Flt3 ratio (FLT3 IC50/Mer IC50)” value is on record as “+++ (a ratio of >100)”.
In the same order, the values of `CCCC(C)Nc1ncc2c(=O)n(CCN3CCOCC3)cc([C@H]3CC[C@H](O)CC3)c2n1` (stereo partly drawn) [Compound 177] are 1 to 10 µM, not above 0.1 µM and “+++ (a ratio of >100)”.
In the same order, the values of `CC(C)C(C)Nc1ncc2c(OC3CCNCC3)ncc([C@H]3CC[C@H](O)CC3)c2n1` (stereo partly drawn) [Compound 178] are 1 to 10 µM, not above 0.1 µM and “+++ (a ratio of >100)”.
Regarding `CCCC(C)Nc1ncc2c(N(C)C3CCNCC3)ncc([C@H]3CC[C@H](O)CC3)c2n1` (stereo partly drawn) [Compound 179], the IC50 against FLT3 is 1 to 10 µM; at MERTK, not above 0.1 µM. Moreover, on MERTK, the “Mer/Flt3 ratio (FLT3 IC50/Mer IC50)” value is “++ (a ratio of between 10 and 100)”.
On to `CCCC(C)Nc1ncc2c(N3CCC[C@H](N(C)C)C3)ncc([C@H]3CC[C@H](O)CC3)c2n1` (stereo partly drawn) [Compound 180], for which the IC50 against FLT3 fell in the range of 1 to 10 µM. Besides, on MERTK, the IC50 was not above 0.1 µM and the “Mer/Flt3 ratio (FLT3 IC50/Mer IC50)” value was “+++ (a ratio of >100)”.
With `CCCC(C)Nc1ncc2c(N3CC(N(C)C)C3)ncc([C@H]3CC[C@H](O)CC3)c2n1` (stereo partly drawn) [Compound 181], the IC50 was 1 to 10 µM against FLT3 and not above 0.1 µM at MERTK. Besides, the “Mer/Flt3 ratio (FLT3 IC50/Mer IC50)” value at MERTK was “++ (a ratio of between 10 and 100)”.
For `CCCC(C)Nc1ncc2c(OCCN3CCOCC3)ncc([C@H]3CC[C@H](O)CC3)c2n1` (stereo partly drawn) [Compound 182], the IC50 against FLT3 lay in the range of 0.1 to 1 µM. On MERTK, the concentration for half-maximal inhibition (IC50) is not above 0.1 µM; the “Mer/Flt3 ratio (FLT3 IC50/Mer IC50)” value was “++ (a ratio of between 10 and 100)”.
For the compound `O[C@H]1CC[C@H](c2cnc(OC3CCNCC3)c3cnc(NC4CCCCC4)nc32)CC1` [Compound 183], the IC50 against FLT3 lay in the range of 0.1 to 1 µM. Moreover, on MERTK, the IC50 was not above 0.1 µM; the “Mer/Flt3 ratio (FLT3 IC50/Mer IC50)” value is “++ (a ratio of between 10 and 100)”.
`CCCC(C)Nc1ncc2c(OC3CCOCC3)ncc([C@H]3CC[C@@H](N(C)C)CC3)c2n1` (stereo partly drawn) [Compound 184] registered an IC50 against FLT3 of 1 to 10 µM. Also, at MERTK, the IC50 is not above 0.1 µM; the “Mer/Flt3 ratio (FLT3 IC50/Mer IC50)” value is “++ (a ratio of between 10 and 100)”.
With `CCCC(C)Nc1ncc2c(OC3CCOCC3)ncc([C@H]3CC[C@H](N(C)C)CC3)c2n1` (stereo partly drawn) [Compound 185], the IC50 against FLT3 fell in the range of 0.1 to 1 µM. In addition, on MERTK, the IC50 was not above 0.1 µM; the “Mer/Flt3 ratio (FLT3 IC50/Mer IC50)” value was “++ (a ratio of between 10 and 100)”.
With `CCCC(C)Nc1ncc2c(=O)n(C3CCN(C(C)C)CC3)cc([C@H]3CC[C@H](O)CC3)c2n1` (stereo partly drawn) [Compound 186], the IC50 at FLT3 fell in the range of 1 to 10 µM. Moreover, on MERTK, the IC50 was not above 0.1 µM and the “Mer/Flt3 ratio (FLT3 IC50/Mer IC50)” value is “+++ (a ratio of >100)”.
As to `CCCC(C)Nc1ncc2c(O[C@H]3C[C@H](O)C3)ncc([C@H]3CC[C@H](O)CC3)c2n1` (stereo partly drawn) [Compound 187], the IC50 at FLT3 is 0.1 to 1 µM. At MERTK, the IC50 is not above 0.1 µM; the “Mer/Flt3 ratio (FLT3 IC50/Mer IC50)” value is “++ (a ratio of between 10 and 100)”.
The compound `CCCC(C)Nc1ncc2c(N3CCC[C@@H](N(C)C)C3)ncc([C@H]3CC[C@H](O)CC3)c2n1` (stereo partly drawn) [Compound 188] gave an IC50 at FLT3 of 1 to 10 µM. Besides, at MERTK, the IC50 is not above 0.1 µM and the “Mer/Flt3 ratio (FLT3 IC50/Mer IC50)” value is reported as “+++ (a ratio of >100)”.
On FLT3, `C[C@H](Nc1ncc2c(OC3CCNCC3)ncc([C@H]3CC[C@H](O)CC3)c2n1)c1ccccc1` [Compound 189] gave an IC50 of 1 to 10 µM. Moreover, at MERTK, the IC50 was not above 0.1 µM; the “Mer/Flt3 ratio (FLT3 IC50/Mer IC50)” value is “++ (a ratio of between 10 and 100)”.
`CCC[C@H](C)Nc1ncc2c(OC3CCN(C)CC3)ncc([C@H]3CC[C@H](O)CC3)c2n1` [Compound 190]: the figures for the IC50 at FLT3 and at MERTK were 1 to 10 µM and not above 0.1 µM, respectively. Further, the “Mer/Flt3 ratio (FLT3 IC50/Mer IC50)” value on MERTK was “+++ (a ratio of >100)”.
At FLT3, `CCCC(C)Nc1ncc2c(OCCN(C)C)ncc([C@H]3CC[C@H](O)CC3)c2n1` (stereo partly drawn) [Compound 191] registered an IC50 of 1 to 10 µM. At MERTK, the IC50 was not above 0.1 µM and the “Mer/Flt3 ratio (FLT3 IC50/Mer IC50)” value is on record as “+++ (a ratio of >100)”.
For `CCCC(C)Nc1ncc2c(=O)n(C3CCN(C(=O)CN(C)C)CC3)cc([C@H]3CC[C@H](O)CC3)c2n1` (stereo partly drawn) [Compound 192] the same measures were 1 to 10 µM, not above 0.1 µM and “+++ (a ratio of >100)”.
In turn, `CCCC(C)Nc1ncc2c(=O)n(CC3CCN(C)CC3)cc([C@H]3CC[C@H](O)CC3)c2n1` (stereo partly drawn) [Compound 193] registered an IC50 on FLT3 of 1 to 10 µM. On MERTK, the IC50 was not above 0.1 µM and the “Mer/Flt3 ratio (FLT3 IC50/Mer IC50)” value is given as “+++ (a ratio of >100)”.
For `C[C@@H](CC(F)(F)F)Nc1ncc2c(O[C@H]3C[C@](C)(O)C3)ncc([C@H]3CC[C@H](O)CC3)c2n1` [Compound 430] the same measures were 0.1 to 1 µM, not above 0.1 µM and “+++ (a ratio of >100)”.
In the same order, the values of `COC[C@H](C)Nc1ncc2c(O[C@H]3C[C@@H](O)C3(C)C)ncc([C@H]3CC[C@H](O)CC3)c2n1` [Compound 431] are 1 to 10 µM, not above 0.1 µM and “+++ (a ratio of >100)”.
In the same order, the values of `COCCN1[C@@H]2CC[C@H]1C[C@H](Oc1ncc([C@H]3CC[C@H](O)CC3)c3nc(N[C@@H](C)CC(F)(F)F)ncc13)C2` [Compound 432] are 0.1 to 1 µM, not above 0.1 µM and “+++ (a ratio of >100)”.
For `CC(=O)N[C@H]1C[C@@H](Oc2ncc([C@H]3CC[C@H](O)CC3)c3nc(N[C@@H](C)CC(F)(F)F)ncc23)C1` [Compound 433], the 50% inhibitory concentration (IC50) at FLT3 was in the range of 0.1 to 1 µM. Also, on MERTK, the IC50 is not above 0.1 µM and the “Mer/Flt3 ratio (FLT3 IC50/Mer IC50)” value is recorded as “+++ (a ratio of >100)”.
In the same order, the values of `CO[C@H]1C[C@@H](Oc2ncc([C@H]3CC[C@H](O)CC3)c3nc(N[C@@H](C)CC(F)(F)F)ncc23)C1` [Compound 434] are 0.1 to 1 µM, not above 0.1 µM and “+++ (a ratio of >100)”.
